Measurements published in patent US20060246117A1, “Animal husbandry method for administering a vitamin E derivative and formulation” (ADISSEO FRANCE S.A.S., priority 2003, published 2006).
Values belong to the compound of their own block, whether it stands above or below them.

Assays:
[1] = Vitamin E levels in egg yolks of laying hens (Example 11); type: in vivo, ISA brown laying hens; details: supplementation level of 100 mg/kg feed
Protocol: Forty ISA brown laying hens, 23 weeks of age, were equally divided into 4 groups and individually housed in cages. The animals received the meal experimental diets (R1-R4) ad libitum for 21 days. The eggs layed on D20 to 21 were collected, weighed and stored at +4° C. The vitamin E levels in the egg yolk were determined by HPLC according to the method by […] et al. (2005). Data were analysed using the ANOVA procedure of Statview.

[2] = biological target: T1, cholesterol ester hydrolase (Homo sapiens, UniProt P19835); experiment: Tac hydrolysis in M40 micelle above CaCo-2 cells, 2 hours (Example 8.2); type: in vitro ADME; details: Tac 67 nmol/cm^2; Tac/emulsifier ratio 100/1; 2 hours at 37° C.
T1 sequence (P19835 21-753): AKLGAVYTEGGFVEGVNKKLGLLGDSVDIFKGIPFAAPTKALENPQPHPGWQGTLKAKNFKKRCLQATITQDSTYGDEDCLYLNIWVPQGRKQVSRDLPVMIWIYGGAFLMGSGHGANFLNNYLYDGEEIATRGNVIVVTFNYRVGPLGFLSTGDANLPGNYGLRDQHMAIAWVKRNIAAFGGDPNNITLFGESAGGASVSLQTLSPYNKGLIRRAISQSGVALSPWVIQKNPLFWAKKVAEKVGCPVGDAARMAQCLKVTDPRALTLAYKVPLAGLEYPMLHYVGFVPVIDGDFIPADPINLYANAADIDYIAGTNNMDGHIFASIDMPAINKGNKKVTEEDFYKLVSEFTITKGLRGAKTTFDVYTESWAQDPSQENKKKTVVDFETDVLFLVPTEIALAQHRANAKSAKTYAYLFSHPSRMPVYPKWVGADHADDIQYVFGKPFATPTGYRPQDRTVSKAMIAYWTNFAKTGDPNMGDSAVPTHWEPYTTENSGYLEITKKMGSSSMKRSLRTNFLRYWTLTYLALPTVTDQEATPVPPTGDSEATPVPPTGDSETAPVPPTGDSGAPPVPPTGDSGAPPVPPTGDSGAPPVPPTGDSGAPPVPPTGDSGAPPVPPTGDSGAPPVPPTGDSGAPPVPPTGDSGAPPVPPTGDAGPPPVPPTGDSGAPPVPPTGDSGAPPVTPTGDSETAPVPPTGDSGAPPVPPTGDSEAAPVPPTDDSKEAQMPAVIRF
Protocol: The conditions under which the tests are carried out are as follows: • Cell model: CaCo-2 cells • Area of the wells: 4.2 cm^2 • Quantity of Tac: 67 nmol/cm^2 • Solution employed: M40 micelle in accordance with Mathias et al.
Treatments: • A: Without emulsifier • B: With emulsifier (SMP+SMO mixture; ratio 1/1), Tac/emulsifier ratio 100/1
Period of incubation: 2 hours at 37° C.
Analyses: Analysis of Tac in the medium above the cells for the purpose of calculating the degree of hydrolysis.

[3] = Plasma and liver vitamin E levels of broilers fed graded doses (Example 10); type: in vivo, Ross male broiler chicks; details: d35, diets fed d15 to d34
Text: R3: Control+120 IU/kg standard Vit E
R4: Control+200 IU/kg standard Vit E
Three hundred Ross male broiler chicks were divided into 6 groups and housed in 6 pens. From d0 to d14, all animals were fed the same, vitamin E free, basal diet.
The animals received the pelleted experimental diets (R1-R6) ad libitum from d15 to d34. On d35, 15 broilers per treatment, which were closest to the mean body weight, were selected. Plasma samples were collected by intracardiac puncture. Birds were then slaughtered by pentobarbital injection. Livers were dissected, deep frozen in liquid nitrogen and immediately ground. The vitamin E levels in plasma or livers were determined by HPLC according to the method by Castan et al. (2005). Data were analysed using the ANOVA procedure of Statview.

[4] = test system: cholesterol ester hydrolase (pancreatin); experiment: Combined release of Tac from silica support and hydrolysis of the released Tac to Tol (Example 6); type: in vitro ADME
Protocol: (§1) The present example tests the effect of an emulsifier according to the invention, i.e. SMO (sorbitan monooleate). For this purpose, use is made of Tac on a silica support, in a ratio by weight of 1:1, for the assay without emulsifier, and of Tac+emulsifier (SMO) on silica, in a ratio by weight of 50:5:45.
8 mg of Tac (where appropriate +SMO) on the above silica (that is a final concentration of Tac of 16.9 μM) are incubated for 3 hours, while stirring and at 37° C., in the following solutions:
35 mM phosphate, pH 6.5, […] NaCl, pancreatin (2 mg) and bile salts (20 mM).
Before incubating, and after 1 hour and 3 hours, respectively, of incubation under the aforementioned conditions, the concentration of vitamin E in the solution is measured in comparison with the initial quantity of Tac.

[5] = Vitamin E levels in liver and muscle of piglets (Example 13); details: points at 20 IU/kg and 150 IU/kg
Text: R1: Basal diet+20 IU/kg standard Vit E (in the form of dl-α-tocopheryl acetate)
R2: Control+150 IU/kg standard Vit E
Thirty crossbred weanling piglets (8.0 kg live weight) were divided into three groups (R1, R2, R3), kept individually and distributed according to a completely randomized block design. The piglets were fed ad libitum for 14 days on a corn-wheat based diet (Table 11). The diet was supplemented with either 20 IU/kg (R1) or 150 IU/kg (R2) standard DL-α-tocopheryl acetate. […] On day 15 of the experiment the animals were slaughtered and their liver dissected, immediately frozen under liquid nitrogen and ground to powder. Muscle samples (muscularis glutaeus maximus) of about 9 cm2 were obtained from the left hind leg and frozen immediately. The vitamin E content of the samples was determined by HPLC (Castan et al. 2005) and data were statistically analysed using one-way ANOVA.

[6] = Digestibility of vitamin E from faecal excretion in caecectomized cocks (Example 7); type: in vivo; details: treatment 1: Tac 40 mg, no emulsifier
Protocol: Two series of tests were carried out on caecectomized cocks. The first series comprised 32 cocks while the second comprised 51 cocks. They were fed, by “wet gavage”, with a feed which incorporated Tac (vitamin E acetate) or Tac combined, in different proportions, with one or two alimentary emulsifiers according to the invention. The Tac or the combined Tac was formulated in gelatin capsules, which were obtained by using a pipette to deposit a predetermined quantity of Tac or combined Tac in a capsule half shell and then closing the capsule with the other half shell. 48 hours after the ingestion of feed from a bowl, the faeces are collected and the excretion of the vitamin in this material is determined. To this end, the vitamin E is extracted with a vitamin E solvent, for example hexane, and the quantity extracted is then determined by HPLC chromatography. The proportion of vitamin E which has been digested is deduced from the proportion which has been excreted.

[7] = test system: CaCo-2; experiment: Absorption of Tol and Tac by CaCo-2 cells in M20 medium, one hour at 37° C., non-ethoxylated versus ethoxylated emulsifiers (Example 3); type: in vitro ADME
Protocol: Absorption assays are carried out, using the same cell line as that described above, by incubating the cells for 3 hours in a physiological medium which is similar to the intestinal medium and which contains cholesterol ester hydrolase (CEH), the pancreatic enzyme which hydrolyzes the Tac into vitamin E in the animal, and sodium taurocholate, which represents the bile salts. This medium comes in the form of an oil-in-water emulsion, i.e. in the form of micelles, and is commercially identified under the reference M20. The Tac, and, where appropriate, the emulsifier being tested, are placed in this medium. The concentration, in vitamin E equivalent, which is introduced into each well in the form of Tac is 156 μM.
The general experimental conditions of the protocol described in Example 2, 2.1) are identical apart from the fact that the area of the wells and the concentration of Tac introduced into the M20 medium differ. The area of the wells is 6.5 cm^2 and the concentration of Tac is 23.7 μM/cm^2.
Four experiments are carried out, with each being repeated three times, using a protocol which comprises one hour of incubation at 37° C., as follows: • 1) M20 on its own, at the rate of 2 mM; the Tac is therefore on its own without emulsifier; • 2) M20+SML (sorbitan monolaurate) emulsifier • 3) M20+SMP (sorbitan monopalmitate) emulsifier • 4) M20+ESML (ethoxylated sorbitan monolaurate)
In the case of each of the assays 2), 3) and 4), the ratio by weight of the added emulsifier to the Tac (in vitamin E equivalent) is 1:6.9.
Four experiments are carried out, with each being repeated three times, using a protocol which comprises one hour of incubation at 37° C., as follows: • 1) M20 on its own; the Tac is therefore on its own without emulsifier; • 2) M20+SML (sorbitan monolaurate) emulsifier • 3) M20+SMP (sorbitan monopalmitate) emulsifier • 4) M20+MOSE (ethoxylated sorbitan monooleate)

[8] = Plasma vitamin E level of piglets after intraduodenal infusion (Example 9); type: in vivo; details: 800 IU single bolus intraduodenally; pooled samples 4-24 h postprandially
Text: In order to exclude gastric influences or impacts of the carrier, the emulsifier of the invention was intraduodenally infused in liquid form (oil).
Three weaning piglets (initial BW 12 kg) were surgically fitted with a silicon catheter in the jugular vein as well as with a silicon cannula in the proximal duodenum according to the procedure described by Thaela et al. (1995).
A standard weaner diet without vitamin E supplementation was fed to the piglets. The animals were fed a daily feed allowance corresponding to 2.0×W^0.75, distributed twice in equal meals (08.00 h and 16.00). The animals were adapted for 7d to the basal diet. […] 2 treatments×3 piglets×2 repetitions (cross-over)
R1: 800 IU Vitamin E standard oil, infused as a single bolus intraduodenally
Blood samples were taken 4, 8, 12, 16, 20 and 24 h postprandially, plasma was obtained and samples were pooled. After the experiment, the animals were newly adapted to the basal diet for 7d before the 2nd repetition was done accordingly. The vitamin E content in the plasma was determined by HPLC according to the method by Castan et al. (2005). Data were analysed using the ANOVA procedure of Statview.

[9] = Release of Tac from its silica support (Example 4); type: physicochemical; details: 2.5 hours, 38° C., Tac on silica
Protocol: as §1, with “monooleate), on the release of Tac which is attached to silica. To” for “monooleate). For”, “end,” for “purpose,”, “silica” for “silica,”
10 g of Tac (where appropriate +SMO) on the above silica (that is a final concentration of Tac of 10 mM) are incubated for 2.5 hours, while stirring and at 38° C., under different pH conditions in the following solutions:
either 35 mM phosphate, pH 6.5, 0.15 mM NaCl
or 35 mM HCl/glycine, pH 2.5

[10] = in vivo
[11] = oral route, animals; cited from earlier work
[12] = Example 3.2, emulsifier:Tac 1:6.9
[13] = Example 3.3, emulsifier:Tac 1:6.9

- total vitamin E content of the yolk [1]: 4.07 mg
- Tac hydrolysis [2]: 9.7%
- slope of the curve of liver vitamin E level versus dietary dose ([3]; liver): 0.1896
- slope of the curve of plasma vitamin E level versus dietary dose ([3]; plasma): 0.1211
- concentration of vitamin E in the solution in comparison with the initial quantity of Tac ([4]; time 0 minutes (before incubating)): 1.21
- concentration of vitamin E in the solution in comparison with the initial quantity of Tac ([4]; time 60 minutes): 1.30
- concentration of vitamin E in the solution in comparison with the initial quantity of Tac ([4]; time 180 minutes): 5.25
- slope of the regression curve for vitamin E contents in livers [5]: 1.89
- slope of the regression curve for vitamin E contents in muscle samples [5]: 0.89
- Mean digestibility ([6]; first series, faeces at 48 hours): 24.8%
- Mean digestibility ([6]; second series): 26.1%
- Absorption, Tac [7, 12]: 1.68 nmol/cm^2
- Absorption, Tol [7, 12]: 1.77 nmol/cm^2
- Absorption, Vitamin E (Tol + Tac in vitamin E equivalent) [7, 12]: 3.45 nmol/cm^2
- Absorption, Tac [7, 13]: 2.31 nmol/cm^2
- Absorption, Tol [7, 13]: 1.29 nmol/cm^2
- Absorption, Vitamin E (Tol + Tac in vitamin E equivalent) [7, 13]: 3.60 nmol/cm^2
- overall plasma vitamin E level [8]: 5.72 nmol/mL
- % of vitamin E released at pH 2.5 ([9]; 35 mM HCl/glycine, pH 2.5): 46.5%
- % of vitamin E released at pH 6.5 ([9]; 35 mM phosphate, pH 6.5): 59.6%
- increase of vitamin E content in liver as compared to piglets fed 20 IU/kg DL-α-tocopheryl acetate [10]: 51%
- increase of vitamin E content in muscle as compared to piglets fed 20 IU/kg DL-α-tocopheryl acetate [10]: 35%
SMILES: CC(=O)Oc1c(C)c(C)c2c(c1C)CC[C@@](C)(CCC[C@H](C)CCC[C@H](C)CCCC(C)C)O2 [Tac, d,l-α-tocopheryl acetate]
- bioavailability [11]: ≤ 40%

SMILES: Cc1c(C)c2c(c(C)c1O)CC[C@@](C)(CCC[C@H](C)CCC[C@H](C)CCCC(C)C)O2 [vitamin E, d-α-tocopherol]
- bioavailability [11]: ≤ 50%
